The source of these data is patent publication US12239637B2, “Compositions and methods for treating neurological disorders” (priority 2018, dated 2025).

Marks after values point to notes of the source that are not given here.

Common to all, as to type: in vivo, rhesus monkeys
Experiment [1] relates to striatal dopamine, DOPAC and HVA. Kind of experiment: HPLC analysis of striatal neurotransmitters in hemiparkinsonian monkeys. As to conditions: oral 1 mg/kg body wt/d for 30 d. How it is done:
FIG. 8 (A-E). Maraviroc protects striatal dopamine in hemiparkinsonian monkeys. Naïve female rhesus monkeys received a right intracarotid injection of MPTP. […] MPTP group of monkeys also received normal banana as control. After 30 d of treatment, dopamine levels were measured in dorsomedial caudate (A), ventromedial caudate (B), dorsal putamen (C), ventral putamen (D), and nucleus accumbens (E). HPLC quantification of dopamine was performed by a single investigator blinded to the experimental conditions. Data are means±SEM of four monkeys per group. ap<0.001 vs MPTP-intact; bp<0.001 vs MPTP-lesion.
FIG. 9 (A-E). Maraviroc protects striatal DOPAC and HVA in hemiparkinsonian monkeys. Naïve female rhesus monkeys received a right intracarotid injection of MPTP. […] After 30 d of treatment, levels of DOPAC and HVA were measured in dorsomedial caudate (A), ventromedial caudate (B), dorsal putamen (C), ventral putamen (D), and nucleus accumbens (E). HPLC quantification of DOPAC and HVA was performed by a single investigator blinded to the experimental conditions. […]
(§1) At the end point, monkeys were anesthetized with pentobarbital (25 mg/kg intravenously) and killed via perfusion with 0.9% saline. […] These punches were processed for HPLC analysis (for quantification of neurotransmitters). […]
Samples were analyzed for neurotransmitters by an investigator blind to the treatment groups. […]

Experiment [2] deals with TH-positive dopaminergic neurons and fibers. Kind of experiment: TH immunostaining: dopaminergic neurons in the SNpc (stereology) and striatal TH fibers (optical density). The conditions noted are these: oral 1 mg/kg body wt/d for 30 d, lesion side. Here is the method: FIG. 6 (A-C). Oral maraviroc treatment protects dopaminergic neurons in the SNpc of hemiparkinsonian monkeys. Naïve female rhesus monkeys received a right intracarotid injection of MPTP. […] MPTP group of monkeys also received normal banana as control. A) After 30 d of treatment, nigral sections were immunostained for TH. B) A magnified image of TH-stained SNpc is shown. […] All counting were performed by a single investigator blinded to the experimental conditions. ap<0.001 vs MPTP-intact; bp<0.01 vs MPTP-lesion.
FIG. 7 (A-B). Oral maraviroc treatment protects THir fibers in the striatum of hemiparkinsonian monkeys. Naïve female rhesus monkeys received a right intracarotid injection of MPTP. […] MPTP group of monkeys also received normal banana as control. A) After 30 d of treatment, striatal sections were immunostained for TH. B) Optical density of TH fibers in caudate and putamen was calculated by digital image analysis. Six different striatal sections of each monkey were analyzed. ap<0.001 vs MPTP-intact; bp<0.01 vs MPTP-Caudate-lesion; cp<0.01 vs MPTP-Putamen-lesion.
Female rhesus monkeys (6-8 years old; 5-7 kg) were used in this study. […]
as §1

The subject of experiment [3] is CD4+ and CD8+ T cells in the nigra. Kind of experiment: Infiltration of CD4+ and CD8+ T cells into the nigra of hemiparkinsonian monkeys (immunostaining). The conditions noted are these: oral 1 mg/kg body wt/d for 30 d from 7 d after MPTP; near blood vessel and in deep parenchyma of ventral midbrain.
Source text: FIG. 2 (A-E). […] Naïve female rhesus monkeys received a right intracarotid injection of MPTP. […] MPTP group of monkeys also received normal banana as control. After 30 d of treatment, ventral midbrain sections were DAB-stained for CD4 (A, vessel; B, parenchyma). C) Sections were double-labeled for CD4 and TH. CD4-positive cells were counted in two nigral sections (D, within 100 μm around vessel; E, parenchyma within 100 to 200 μm around vessel) of each of four monkeys (n=4) per group. ap<0.001 vs. control; bp<0.01 vs. MPTP. Control represents the intact side of MPTP-intoxicated monkeys.
FIG. 3 (A-D). […] Naïve female rhesus monkeys received a right intracarotid injection of MPTP. […] MPTP group of monkeys also received normal banana as control. After 30 d of treatment, ventral midbrain sections were DAB-stained for CD8 (A, vessel; B, parenchyma). CD8-positive cells were counted in two nigral sections (C, within 100 μm around vessel; D, parenchyma within 100 to 200 μm around vessel) of each of four monkeys (n=4) per group. ap<0.001 vs. control; bp<0.01 vs. MPTP. Control represents the intact side of MPTP-intoxicated monkeys. […]
as §1

In a further experiment the test system is α-syn. Kind of experiment: α-Synucleinopathy in the nigra of hemiparkinsonian monkeys (TH and α-syn double-labeling). As to conditions: oral 1 mg/kg body wt/d for 30 d.
Source text: FIG. 5 (A-C). […] Naïve female rhesus monkeys received a right intracarotid injection of MPTP. […] MPTP group of monkeys also received normal banana as control. After 30 d of treatment, nigral (A) sections were double-labeled for TH and α-syn. Total area (B) and integrated density (C) of α-syn bodies were quantified in two sections (two images per section) of each of four monkeys per group. ap<0.001 vs control (MPTP-intact); bp<0.001 vs MPTP-lesion.
(§2) Female rhesus monkeys (6-8 years old; 5-7 kg) were used in this study. All animals were singly housed with a 12-h light/dark cycle. Purine monkey chow and water were available ad libitum. Diets were supplemented with fruit during the testing sessions. The study was performed in accordance with federal guidelines of proper animal care and with the approval of the IACUC. Monkeys were intoxicated with MPTP according to protocol described previously (12-16). Briefly, animals were tranquilized with ketamine (10 mg/kg, i.m.) and then maintained on an anesthetic plane with isoflurane (1-2%). The animals were put in the supine position. […]
as §1

For experiment [4], the system named is iNOS, Iba1-positive microglia, GFAP-positive astrocytes in the SNpc. Kind of experiment: Glial inflammation in the SNpc of hemiparkinsonian monkeys (Iba1, GFAP, iNOS immunofluorescence). As to conditions: oral 1 mg/kg body wt/d for 30 d.
Source text: FIG. 4 (A-E). […] After 30 d of treatment, nigral sections were double-labeled for Iba1 and iNOS (A) and GFAP and iNOS (B). Cells positive for Iba1 (C), GFAP (D) and iNOS (E) were counted using the olympus microsuite V software in two nigral sections (two images per slide) of each of four monkeys (n=4) per group. ap<0.001 vs. control; bp<0.001 vs MPTP; ns, not significant vs MPTP.
as §2, with “position. For each injection, a right-sided incision was made along the medial edge of the sternocleidomastoid muscle.” for “position.”
For immunofluorescence staining, anti-Iba-1 antibody (1:500), anti-iNOS antibody (1:1000), and anti-GFAP antibody (1:1000) were used. The samples were mounted and observed under an Olympus IX81 fluorescence microscope as described before (17-19).

In the next experiment the test system is hemiparkinsonian monkeys. Nature of the experiment: Behavioral analysis: parkinsonian rating scale (PD scale) and hand reaching task in hemiparkinsonian monkeys. Here is the method: Female rhesus monkeys (6-8 years old; 5-7 kg) were used in this study. All animals were singly housed with a 12-h light/dark cycle. Purine monkey chow and water were available ad libitum. Diets were supplemented with fruit during the testing sessions. The study was performed in accordance with federal guidelines of proper animal care and with the approval of the IACUC. Monkeys were intoxicated with MPTP according to protocol described previously (12-16). Briefly, animals were tranquilized with ketamine (10 mg/kg, i.m.) and then maintained on an anesthetic plane with isoflurane (1-2%). The animals were put in the supine position. For each injection, a right-sided incision was made along the medial edge of the sternocleidomastoid muscle. The carotid sheath was opened and the common carotid artery, internal jugular vein, and vagus nerves were identified. The common carotid was exposed below the carotid bifurcation. The external carotid artery was then ligated. A 27 gauge butterfly needle was inserted into the common carotid artery in a direction retrograde to blood flow; for each injection, 20 ml of saline containing 3 mg of MPTP-HCl (Sigma) was infused at a rate of 1.33 ml/min (15 min). After the infusion was completed, 3 ml of saline was delivered, and then the incision was closed.
Monkeys displaying hemiparkinsonian symptoms 7 d after the first intracarotid injection were included in the study. […] The control group of hemiparkinsonian monkeys (n=4) received only banana as vehicle.
The animals were trained to a consistent level of performance before intracarotid injection of MPTP. Monkeys were rated thrice a week by an investigator blind to the treatment groups using a parkinsonian rating scale (PD scale) utilized to quantify the clinical status of the monkeys (13-16). The scale included ratings of 10 parkinsonian features (tremor, posture, locomotion, hypokinesia, bradykinesia, balance, fine and gross motor skills, startle response, and freezing). Each test consisted of twelve total trials alternating between arms, six per side. Delaying feeding time until after the task was completed ensured animals' compliance with the test. Data collected included the time taken for the animal to move its hand into the chamber where the fruit was located (reaction time), the time taken to pick up the fruit while the hand was in the chamber (reception time) and the total time taken to move the hand into the chamber, retrieve the fruit and bring the hand back out of the panel and into the cage (total time).
All values are expressed as means±SEM. Differences among means were analyzed by one-way ANOVA or Kruskal-Wallis test (comparison among all groups) and post-hoc pair-wise comparison. In other cases, two sample t tests were also used to compare control vs MPTP and MPTP vs MPTP+maraviroc. For behavioral analysis, one way repeated measure ANOVA models were used. Pair-wise comparisons were conducted with Bonferroni adjustment.

The mark [5] stands for this setting: PD scale score after treatment, 1 mg/kg body wt/d orally, mean ± SEM, four monkeys.

With maraviroc, the “levels of DOPAC and HVA in different parts of striatum” value in experiment [1] was “restored”. Further, the “DA in different parts of striatum” value in experiment [1] (caudate, putamen, nucleus accumbens) is reported as “pronounced preservation”. For the same substance, the “striatal TH fibers” value in experiment [2] (caudate and putamen) is “significantly restored”. For the same substance, the “SNpc TH-positive neurons” value in experiment [2] is on record as “significantly restored”. Also, in experiment [3], the “infiltration of CD4+ T cells into the nigra” value is given as “significantly attenuated” and the “infiltration of CD8+ T cells into the nigra” value was “significantly attenuated”. Besides, the “α-syn pathology in the SNpc” value in the experiment on α-syn is on record as “almost missing”. For the same substance, the “expression of iNOS protein in the SNpc” value in experiment [4] is on record as “reduced”. The “number of astrocytes and microglia in the SNpc” value in experiment [4] (GFAP- and Iba1-positive cells) is “did not significantly reduce”. Moreover, in the experiment with hemiparkinsonian monkeys (setting [5]), the “Balance (0-3)” value is reported as 0.57 ± 0.04^a, the “Brady kinesia (0-5)” value is given as 0.85 ± 0.28^a, the “Defense Reaction (0-2)” value is 0.24 ± 0.07^a and the “Freezing (0-2)” value is given as 0.39 ± 0.03^a. Further, in the experiment on hemiparkinsonian monkeys (setting [5]), the “Gait (0-5)” value is 0.25 ± 0.03^a; the “General (Gross) motor skills (0-3), L Hand” value is 0.89 ± 0.05; the “General (Gross) motor skills (0-3), R Hand” value turned out to be 0.01 ± 0.00; the “Posture (0-3)” value was 0.39 ± 0.04^a. For the same substance, in the experiment on hemiparkinsonian monkeys (setting [5]), the “Tremor (0-3), L Hand” value is listed as 0.42 ± 0.03^a and the “Tremor (0-3), R Hand” value was found to be 0.00 ± 0.00. The “Total (Sum mean)” value with hemiparkinsonian monkeys (PD scale total score after treatment, 1 mg/kg body wt/d orally, mean ± SEM, four monkeys) is 4.01 ± 0.40^a. Further, in the experiment on hemiparkinsonian monkeys (oral 1 mg/kg body wt/d for 30 d), the “functional ability on clinical rating scale and operant motor test” value is listed as “significantly improved”. In addition, the “motor deficits in a hand-reach task” value with hemiparkinsonian monkeys (oral maraviroc) was “reversed”.
